The text below walks through data of ChEMBL document CHEMBL1201862, “PubChem BioAssay data set” (2004).

Structures are written as SMILES.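 Assay format: 96-well plates, 48-hour exposure. Abbreviation: GI50, concentration required for 50% inhibition of growth.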 Calls of active or inactive are those of the source. Cut-off read from the data, not from the text of the source: active = GI50 up to about 1.1 µM and inactive = higher. A value given as a limit tells only on which side of the number the result lay.

Test systems include NCI-H226; SF-539; A498; SF-268; HCT-15; NCI-H460; DLD-1; A549; EKVX; RXF 393; SNB-75; DMS-114; SK-MEL-28; KM-20L2; MDA-MB-435; T47D; MDA-N; BT-549; PC-3; Hs-578T.
Assay in all cases: NCI tumour cell line growth inhibition, 48 h

For `CC(C)c1oc(=O)cc2c1C(O)C1OC(=O)C3(C)C(O)C4OC4C2(C)C13` (centres undefined) [NAGILACTONE], the GI50 in the assay on NCI-H226 is 2.16 µM (inactive); in the assay on SF-539, 0.989 µM (active); in the assay on A498, 0.569 µM (active); in the assay with SF-268 it was 4.09 µM (inactive); in the assay on HCT-15, 2.07 µM; with NCI-H460, 0.733 µM (active). The GI50 was 1.23 µM (inactive) in the assay on DLD-1; 2.44 µM (inactive) in the assay with A549; 2.19 µM (inactive) in the assay on EKVX; 1.62 µM (inactive) with RXF 393; 1.92 µM (inactive) in the assay on SNB-75; 1.13 µM (inactive) in the assay on DMS-114. Besides, the GI50 in the assay on SK-MEL-28 was 1.37 µM (inactive); in the assay on KM-20L2 it was 1.63 µM (inactive).
Take `O=C(CC1Sc2ccccc2NC1=O)Nc1ccc(Cl)cc1` (centres undefined): the GI50 in the assay with NCI-H226 is > 100 µM (inactive); in the assay with SF-539 it was 50.2 µM (inactive); in the assay with A498 it was > 100 µM (inactive); with SF-268, 38.5 µM (inactive); with HCT-15, 75.9 µM; in the assay with NCI-H460, > 100 µM (inactive). The GI50 in the assay with DLD-1 was > 100 µM (inactive); in the assay with A549, 91.8 µM (inactive); in the assay on EKVX, > 100 µM (inactive); in the assay with RXF 393, 31.1 µM (inactive); in the assay on SNB-75, 13.1 µM (inactive); in the assay with DMS-114, 48.4 µM (inactive). Also, the GI50 with SK-MEL-28 was > 100 µM (inactive); with KM-20L2 it was 89.1 µM (inactive).
`OCC1OC(n2cnc3c2NC=NC[C@H]3O)C(O)C1O` (some centres undefined): the GI50 with NCI-H226 is 173 µM (inactive); in the assay with SF-539 it was > 450 µM (inactive); in the assay with A498 it was 208 µM (inactive); in the assay with SF-268 it was > 384 µM (inactive); in the assay with HCT-15, 205 µM; in the assay with NCI-H460, 164 µM (inactive). Further, the GI50 in the assay with DLD-1 is 300 µM (inactive); in the assay with A549, 396 µM (inactive); in the assay with EKVX it was > 450 µM (inactive); in the assay on RXF 393, 238 µM (inactive); with SNB-75 it was 412 µM (inactive); with DMS-114 it was > 450 µM (inactive). The GI50 in the assay with SK-MEL-28 is > 450 µM (inactive); with KM-20L2, 444 µM (inactive).
With `CS(=O)(=O)OCCCNCCCOS(C)(=O)=O`, the GI50 is 1680 µM (inactive) in the assay with NCI-H226; 1270 µM (inactive) with SF-539; 2340 µM (inactive) in the assay with MDA-MB-435; 1330 µM (inactive) in the assay on A498; 879 µM (inactive) in the assay on SF-268; 1460 µM in the assay with HCT-15. Moreover, the GI50 with T47D is 573 µM (inactive); in the assay with MDA-N it was 2350 µM (inactive); in the assay on NCI-H460 it was 156 µM (inactive); with DLD-1, 2810 µM (inactive); with BT-549, 1270 µM (inactive); in the assay on A549, 741 µM (inactive). For the same compound, the GI50 is 1270 µM (inactive) with PC-3; 1810 µM (inactive) in the assay with EKVX; 1610 µM (inactive) in the assay on RXF 393; 1580 µM (inactive) in the assay with SNB-75; 2090 µM (inactive) in the assay with Hs-578T; 849 µM (inactive) in the assay with DMS-114. Also, the GI50 was 2440 µM (inactive) in the assay with SK-MEL-28 and 1990 µM (inactive) in the assay with KM-20L2.
With `COC(=O)C1Cc2c([nH]c3ccccc23)C=N1` (centres undefined), the GI50 with NCI-H226 was > 100 µM (inactive); with SF-539, > 100 µM (inactive); in the assay with A498, > 100 µM (inactive); with SF-268, > 100 µM (inactive); in the assay with HCT-15 it was over 100 µM; with NCI-H460, > 100 µM (inactive). Also, the GI50 with DLD-1 was > 100 µM (inactive); with A549, > 100 µM (inactive); in the assay with EKVX, > 100 µM (inactive); in the assay with RXF 393, > 100 µM (inactive); in the assay with SNB-75 it was 60.8 µM (inactive); in the assay with DMS-114, > 100 µM (inactive). Further, the GI50 with SK-MEL-28 and in the assay on KM-20L2 was > 100 µM (inactive) in each case.
`CC(C)CCCC(C)[C@H]1CCC(C2C[C@@H](O)[C@@H]3CC(O)[C@@H](O)C[C@]3(CO)C2=O)[C@]1(C)CCO` (some centres undefined): the GI50 in the assay with NCI-H226 is 30.7 µM (inactive); with SF-539, 20.9 µM (inactive); in the assay with A498, 25.6 µM (inactive); with SF-268, 25 µM (inactive); in the assay with HCT-15 it was 28.8 µM; in the assay on NCI-H460, 21.8 µM (inactive). The GI50 in the assay on DLD-1 is 31.7 µM (inactive); with A549, 34 µM (inactive); with EKVX it was > 57.8 µM (inactive); in the assay with RXF 393, 24.9 µM (inactive); in the assay with SNB-75, 20.4 µM (inactive); in the assay on DMS-114, 20.6 µM (inactive). In addition, the figures for the GI50 in the assay on SK-MEL-28 and in the assay on KM-20L2 were 21.8 µM (inactive) and 20 µM (inactive), respectively.
Take `CC1CC(C)(O)C2C3(C)CCCC2(COC3=O)C12CCC1(CCOC1=O)O2` (centres undefined): the GI50 was > 250 µM (inactive) in the assay on NCI-H226; > 250 µM (inactive) in the assay on SF-539; > 163 µM (inactive) in the assay with A498; > 250 µM (inactive) in the assay on SF-268; over 250 µM in the assay on HCT-15; > 250 µM (inactive) in the assay on NCI-H460. Besides, the GI50 in the assay with DLD-1, with A549, in the assay on EKVX, in the assay on RXF 393, with SNB-75 and with DMS-114 was > 250 µM (inactive) in each case. Moreover, the GI50 in the assay on SK-MEL-28 and in the assay on KM-20L2 was > 250 µM (inactive) each time.
As to `CCOC(=O)C1S/C(=N\c2ccc(Cl)cc2Cl)N=C1C` (centres undefined), the GI50 in the assay on NCI-H226 was > 100 µM (inactive); in the assay with SF-539, 53 µM (inactive); in the assay on A498 it was 39.3 µM (inactive); with SF-268, > 100 µM (inactive); in the assay on HCT-15, over 100 µM; in the assay on NCI-H460, 86.5 µM (inactive). The GI50 in the assay on DLD-1 is 73.6 µM (inactive); in the assay with A549 it was 76.4 µM (inactive); in the assay on EKVX, > 100 µM (inactive); in the assay on RXF 393 it was 27.5 µM (inactive); in the assay on SNB-75 it was 26.1 µM (inactive); in the assay with DMS-114 it was 33.1 µM (inactive). Besides, the GI50 in the assay on SK-MEL-28 and with KM-20L2 was > 100 µM (inactive) each time.
As to `CC1=C(C(=O)NCc2ccccc2)C(c2ccco2)C(C(=O)NCc2ccccc2)=C(C)N1`, the GI50 with NCI-H226 is > 100 µM (inactive); in the assay on SF-539, > 100 µM (inactive); in the assay with A498, > 100 µM (inactive); with SF-268, 80.4 µM (inactive); in the assay on HCT-15, 52.8 µM; in the assay with NCI-H460 it was > 100 µM (inactive). Also, the GI50 in the assay with DLD-1 was > 100 µM (inactive); in the assay on A549, > 100 µM (inactive); in the assay on EKVX it was > 100 µM (inactive); in the assay with RXF 393, 66.8 µM (inactive); with SNB-75 it was > 100 µM (inactive); with DMS-114, 48.5 µM (inactive). The GI50 in the assay with SK-MEL-28 was > 100 µM (inactive); in the assay on KM-20L2 it was 32.5 µM (inactive).
With `C/C=C(\C)C(=O)OC1C2C(C)=CC(=O)C(O)C2(C)C2C3(O)OCC24C1OC(=O)C(OC(C)=O)C4C(C)C3O` (centres undefined), the GI50 with NCI-H226 was 0.0375 µM (active); in the assay on A498 it was 0.0611 µM (active); in the assay on SF-268 it was 0.0444 µM (active); with HCT-15 it was 0.0741 µM; in the assay on NCI-H460 it was 0.0375 µM (active); in the assay with DLD-1, 0.0375 µM (active). Further, the GI50 in the assay on A549 was 0.0873 µM (active); with EKVX it was 0.046 µM (active); in the assay with RXF 393, 0.0375 µM (active); in the assay with SNB-75 it was 0.0389 µM (active); in the assay with DMS-114 it was 0.0375 µM (active); in the assay with SK-MEL-28 it was 0.0375 µM (active). Moreover, the GI50 in the assay on KM-20L2 was 0.0471 µM (active).
`CCOC(=O)CSC(=O)NCCCl`: the GI50 with NCI-H226 is > 100 µM (inactive); in the assay on SF-539 it was > 100 µM (inactive); with A498 it was > 100 µM (inactive); in the assay with SF-268, > 100 µM (inactive); in the assay with HCT-15, over 100 µM; with NCI-H460 it was > 100 µM (inactive). For the same compound, the GI50 in the assay with DLD-1, with A549, in the assay on EKVX, in the assay on RXF 393, with SNB-75 and in the assay on DMS-114 was > 100 µM (inactive) throughout. Besides, the GI50 in the assay with SK-MEL-28 and with KM-20L2 was > 100 µM (inactive) in each case.
